From patent US20240409585A1, “MACROCYCLIC IMMUNOMODULATORS” (priority 2021, published 2024)
Bridge positions count the residues as written; N and C are the ends. Square brackets hold non-standard residues; d marks the D form. Peptide text beside a SMILES is read from it. Bip = N[C@@H](Cc1ccc(-c2ccccc2)cc1)C(=O)O; Bta = N[C@@H](Cc1csc2ccccc12)C(=O)O; Nva(4-oxo) = CC(=O)C[C@H](N)C(=O)O; NMeA = CN[C@@H](C)C(=O)O

Target: T1, PE-labeled human PD-L1-Ig binding to Jurkat cell line over-expressing human PD-1 (Jurkat-PD-1) (Homo sapiens, UniProt Q15116)
T1 construct: expressed in transfected cells; host or cells: Jurkat
Assay: Jurkat-PD-1 Cell Binding High-Content Screening Assay (CBA): Method 1
Conditions: Jurkat-hPD-1 cells, PE-labeled PD-L1-Ig 20 nM final; read-out: Jurkat HPDL1 PD1 IC50 (uM) (Method 1)

T1 sequence (Q15116 25-288): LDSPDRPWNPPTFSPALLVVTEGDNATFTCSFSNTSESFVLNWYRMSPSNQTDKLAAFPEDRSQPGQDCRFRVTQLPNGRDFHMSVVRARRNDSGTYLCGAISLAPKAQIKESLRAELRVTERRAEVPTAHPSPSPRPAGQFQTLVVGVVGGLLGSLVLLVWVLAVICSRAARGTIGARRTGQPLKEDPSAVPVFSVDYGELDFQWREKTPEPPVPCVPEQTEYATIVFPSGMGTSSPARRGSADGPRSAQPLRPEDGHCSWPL

IC50 | SMILES
0.15 µM | CC(C)C[C@@H]1NC(=O)CSC[C@@H](C(=O)NCC(N)=O)NC(=O)[C@H](CO)NC(=O)[C@H](C(C)C)NC(=O)[C@H](CC(C)C)NC(=O)[C@H](CCCNC(=N)N)NC(=O)[C@@H](Cc2ccccc2)NC(=O)[C@H](C)N(C)C(=O)[C@H](CCCNC(=N)N)NC(=O)[C@H](Cc2ccc(-c3ccccc3)cc2)NC(=O)[C@H](C(C)C)NC(=O)[C@H](Cc2c[nH]c3ccccc23)NC(=O)[C@H](CC(=O)O)NC(=O)[C@H](Cc2ccc(O)cc2)NC1=O [Compound 1024] ({CH2CO}-LYDWV[Bip]R[NMeA][dF]RLVSCG-NH2; thioether N-14)
0.12 µM | CC(C)C[C@@H]1NC(=O)[C@H](CCCNC(=N)N)NC(=O)[C@H](Cc2csc3ccccc23)NC(=O)[C@H](C)N(C)C(=O)[C@H](CCCNC(=N)N)NC(=O)[C@H](Cc2ccc(-c3ccccc3)cc2)NC(=O)[C@H](C(C)C)NC(=O)[C@H](Cc2c[nH]c3ccccc23)NC(=O)[C@H](CC(=O)O)NC(=O)[C@H](Cc2ccc(O)cc2)NC(=O)[C@H](Cc2cnc[nH]2)NC(=O)CSC[C@@H](C(=O)NCC(N)=O)NC(=O)[C@H](CO)NC(=O)[C@H](C(C)C)NC1=O [Compound 1025] ({CH2CO}-HYDWV[Bip]R[NMeA][Bta]RLVSCG-NH2; thioether N-14)
0.13 µM | CC(C)C[C@@H]1NC(=O)[C@H](CCCNC(=N)N)NC(=O)[C@H](Cc2csc3ccccc23)NC(=O)[C@H](C)N(C)C(=O)[C@H](CCCNC(=N)N)NC(=O)[C@H](Cc2ccc(-c3ccccc3)cc2)NC(=O)[C@H](C(C)C)NC(=O)[C@H](Cc2c[nH]c3ccccc23)NC(=O)[C@H](CC(=O)O)NC(=O)[C@H](Cc2ccc(O)cc2)NC(=O)[C@H](CC(N)=O)NC(=O)CSC[C@@H](C(=O)NCC(N)=O)NC(=O)[C@H](CO)NC(=O)[C@H](C(C)C)NC1=O [Compound 1026] ({CH2CO}-NYDWV[Bip]R[NMeA][Bta]RLVSCG-NH2; thioether N-14)
0.21 µM | CC(=O)C[C@@H]1NC(=O)CSC[C@@H](C(=O)NCC(N)=O)NC(=O)[C@H](CO)NC(=O)[C@H](C(C)C)NC(=O)[C@H](CC(C)C)NC(=O)[C@H](CCCNC(=N)N)NC(=O)[C@H](Cc2csc3ccccc23)NC(=O)[C@H](C)N(C)C(=O)[C@H](CCCNC(=N)N)NC(=O)[C@H](Cc2ccc(-c3ccccc3)cc2)NC(=O)[C@H](C(C)C)NC(=O)[C@H](Cc2c[nH]c3ccccc23)NC(=O)[C@H](CC(=O)O)NC(=O)[C@H](Cc2ccc(O)cc2)NC1=O [Compound 1027] ({CH2CO}-[Nva(4-oxo)]YDWV[Bip]R[NMeA][Bta]RLVSCG-NH2; thioether N-14)
0.11 µM | CC(C)C[C@@H]1NC(=O)[C@H](CCCNC(=N)N)NC(=O)[C@H](Cc2csc3ccccc23)NC(=O)[C@H](C)N(C)C(=O)[C@H](CCCNC(=N)N)NC(=O)[C@H](Cc2ccc(-c3ccccc3)cc2)NC(=O)[C@H](C(C)C)NC(=O)[C@H](Cc2c[nH]c3ccccc23)NC(=O)[C@H](CC(=O)O)NC(=O)[C@H](Cc2ccc(O)cc2)NC(=O)[C@H](CCC(N)=O)NC(=O)CSC[C@@H](C(=O)NCC(N)=O)NC(=O)[C@H](CO)NC(=O)[C@H](C(C)C)NC1=O [Compound 1028] ({CH2CO}-QYDWV[Bip]R[NMeA][Bta]RLVSCG-NH2; thioether N-14)
0.04 µM | CC(C)C[C@@H]1NC(=O)[C@H](CCCNC(=N)N)NC(=O)[C@@H](CC(C)C)NC(=O)[C@H](C)N(C)C(=O)[C@H](CCCNC(=N)N)NC(=O)[C@H](Cc2ccc(-c3ccccc3)cc2)NC(=O)[C@H](C(C)C)NC(=O)[C@H](Cc2c[nH]c3ccccc23)NC(=O)[C@H](CC(=O)O)NC(=O)[C@H](Cc2ccc(O)cc2)NC(=O)[C@H](CCC(N)=O)NC(=O)CSC[C@@H](C(=O)N[C@@H](C)C(N)=O)NC(=O)[C@H](CO)NC(=O)[C@H](C(C)C)NC1=O [Compound 1029] ({CH2CO}-QYDWV[Bip]R[NMeA][dL]RLVSCA-NH2; thioether N-14)
